{"source": "paper PMC3914206", "assay_type_in_all_cases": "binding", "key": {"panel of 442 kinases [1]": {"biological_target": "T1, panel of 442 kinases (Homo sapiens, UniProt P42336, H1047Y)", "T1 construct": "purchased KINOMEscan", "T1 sequence (P42336 whole entry H1047Y)": "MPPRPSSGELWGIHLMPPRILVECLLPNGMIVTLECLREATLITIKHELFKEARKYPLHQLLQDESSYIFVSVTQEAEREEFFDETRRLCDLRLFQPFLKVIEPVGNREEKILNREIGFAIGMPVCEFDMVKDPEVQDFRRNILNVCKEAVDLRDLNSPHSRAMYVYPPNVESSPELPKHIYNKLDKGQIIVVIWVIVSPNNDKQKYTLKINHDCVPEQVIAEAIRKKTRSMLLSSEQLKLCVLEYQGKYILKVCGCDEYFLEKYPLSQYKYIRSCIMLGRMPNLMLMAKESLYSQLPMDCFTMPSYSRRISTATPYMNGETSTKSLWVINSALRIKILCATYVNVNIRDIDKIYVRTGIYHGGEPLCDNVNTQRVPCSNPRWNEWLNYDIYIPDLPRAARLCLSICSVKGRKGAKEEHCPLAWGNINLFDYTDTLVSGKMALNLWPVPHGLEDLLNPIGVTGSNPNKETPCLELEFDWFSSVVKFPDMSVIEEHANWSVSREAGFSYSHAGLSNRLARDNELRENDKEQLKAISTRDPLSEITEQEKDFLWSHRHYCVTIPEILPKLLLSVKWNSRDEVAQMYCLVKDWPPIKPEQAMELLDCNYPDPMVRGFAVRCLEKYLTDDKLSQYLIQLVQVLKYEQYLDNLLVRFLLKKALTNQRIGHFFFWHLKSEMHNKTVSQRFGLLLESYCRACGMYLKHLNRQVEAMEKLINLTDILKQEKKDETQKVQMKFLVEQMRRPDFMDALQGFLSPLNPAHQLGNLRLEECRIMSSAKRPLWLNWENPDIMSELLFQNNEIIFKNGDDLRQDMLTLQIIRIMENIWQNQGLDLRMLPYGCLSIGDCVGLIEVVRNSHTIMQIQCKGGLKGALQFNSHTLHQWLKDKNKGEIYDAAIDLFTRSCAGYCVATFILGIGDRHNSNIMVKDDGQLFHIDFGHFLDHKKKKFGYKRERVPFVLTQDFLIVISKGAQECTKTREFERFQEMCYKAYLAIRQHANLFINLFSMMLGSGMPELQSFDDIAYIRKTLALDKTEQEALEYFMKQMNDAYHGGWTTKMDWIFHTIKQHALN", "settings": "Compound Concentration 10 µM", "excerpt": "(§1) We assessed the selectivity of members of this scaffold using the KINOMEscan methodology across a near comprehensive panel of 442 kinases [[18,27]]."}, "panel of 442 kinases [2]": {"biological_target": "T2, panel of 442 kinases (Homo sapiens, UniProt Q96SB4)", "T2 construct": "purchased KINOMEscan", "settings": "kinase SRPK1; compound concentration 10 µM", "excerpt": "as §1"}, "panel of 442 kinases [3]": {"biological_target": "T3, panel of 442 kinases (Homo sapiens, UniProt P54760)", "T3 construct": "purchased KINOMEscan", "T3 sequence (P54760 16-987)": "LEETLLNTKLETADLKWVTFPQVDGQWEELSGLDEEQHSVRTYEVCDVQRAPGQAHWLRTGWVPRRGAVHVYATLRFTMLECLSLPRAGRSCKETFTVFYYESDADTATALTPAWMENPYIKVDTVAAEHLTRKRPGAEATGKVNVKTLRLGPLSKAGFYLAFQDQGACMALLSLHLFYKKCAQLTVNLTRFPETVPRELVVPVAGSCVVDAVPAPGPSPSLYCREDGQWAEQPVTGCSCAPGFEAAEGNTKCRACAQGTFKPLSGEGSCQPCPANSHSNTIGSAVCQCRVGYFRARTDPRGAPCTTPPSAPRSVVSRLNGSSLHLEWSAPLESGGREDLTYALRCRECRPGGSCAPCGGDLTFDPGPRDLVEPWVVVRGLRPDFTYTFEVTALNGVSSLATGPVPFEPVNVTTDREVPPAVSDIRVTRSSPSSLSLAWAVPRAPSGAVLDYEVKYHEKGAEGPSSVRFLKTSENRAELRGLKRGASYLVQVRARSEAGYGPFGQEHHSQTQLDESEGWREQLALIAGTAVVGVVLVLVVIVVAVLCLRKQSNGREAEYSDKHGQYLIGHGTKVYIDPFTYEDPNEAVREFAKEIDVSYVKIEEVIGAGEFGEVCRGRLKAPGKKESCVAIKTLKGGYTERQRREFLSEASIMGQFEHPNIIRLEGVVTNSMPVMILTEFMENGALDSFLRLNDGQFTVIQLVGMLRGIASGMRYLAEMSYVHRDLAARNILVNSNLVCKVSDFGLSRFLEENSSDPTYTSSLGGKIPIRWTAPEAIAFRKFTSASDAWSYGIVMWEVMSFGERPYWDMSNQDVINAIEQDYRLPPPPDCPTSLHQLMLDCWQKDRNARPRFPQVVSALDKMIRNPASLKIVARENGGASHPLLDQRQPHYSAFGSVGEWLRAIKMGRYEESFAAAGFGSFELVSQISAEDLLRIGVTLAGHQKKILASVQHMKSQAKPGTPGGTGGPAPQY", "settings": "Compound Concentration 10 µM", "excerpt": "as §1"}}, "data": [{"smiles": "COc1cc(C(=O)N2CCC(N3CCN(C)CC3)CC2)ccc1Nc1ncc2c(n1)N(C)c1ccccc1C(=O)N2C", "note": "[15 (LRRK2-IN-1)]", "values": [{"measurement": "KINOMEscan: PIK3CA(H1047Y)", "setting": "panel of 442 kinases [1]", "value": 71}, {"measurement": "% Ctrl, SRPK1", "setting": "panel of 442 kinases [2]", "value": 94, "unit": "% Ctrl"}, {"measurement": "KINOMEscan: EPHB4", "setting": "panel of 442 kinases [3]", "value": 100}]}, {"smiles": "CCOc1cc(C(=O)N2CCC(N3CCN(C)CC3)CC2)ccc1Nc1ncc2c(n1)N(C1CCCC1)c1ccccc1C(=O)N2C", "note": "[Compound 26]", "values": [{"measurement": "KINOMEscan: PIK3CA(H1047Y)", "setting": "panel of 442 kinases [1]", "value": 76}, {"measurement": "% Ctrl, SRPK1", "setting": "panel of 442 kinases [2]", "value": 100, "unit": "% Ctrl"}, {"measurement": "KINOMEscan: EPHB4", "setting": "panel of 442 kinases [3]", "value": 100}]}, {"smiles": "COc1cc(C(=O)N2CCC(N3CCN(C)CC3)CC2)ccc1Nc1ncc2c(n1)N1CCc3cccc(c31)C(=O)N2C", "note": "[Compound 24]", "values": [{"measurement": "KINOMEscan: PIK3CA(H1047Y)", "setting": "panel of 442 kinases [1]", "value": 68}, {"measurement": "% Ctrl, SRPK1", "setting": "panel of 442 kinases [2]", "value": 74, "unit": "% Ctrl"}]}, {"smiles": "COc1cc(C(=O)N2CCC(N3CCN(C)CC3)CC2)ccc1Nc1ncc2c(n1)N(C1CCCC1)c1ccccc1C(=O)N2C", "note": "[Compound 25, 11-cyclopentyl-2-((2-methoxy-4-(4-(4-methylpiperazin-1-yl)piperidine-1-carbonyl)phenyl)amino)-5-methyl-5H-benzo[e]pyrimido[5,4-b][1,4]diazepin-6(11H)-one]", "values": [{"measurement": "KINOMEscan: PIK3CA(H1047Y)", "setting": "panel of 442 kinases [1]", "value": 100}, {"measurement": "% Ctrl, SRPK1", "setting": "panel of 442 kinases [2]", "value": 90, "unit": "% Ctrl"}, {"measurement": "KINOMEscan: EPHB4", "setting": "panel of 442 kinases [3]", "value": 100}]}]}
